Laboratory results from the NIST ThermoML archive (doi:10.1016/j.jct.2017.03.022).
Numbers after ± are expanded uncertainties.

Assay: xn = mol fraction of the nth substance listed
Conditions: 101 kPa, Liquid; for speed of sound: Frequency=3 MHz, Single path-length method; for mass density: Vibrating tube method

O=C1CCCN1 [2-pyrrolidinone] + CC(O)CO
Conditions	mass density, 303.15 K [kg/m3]	mass density, 308.15 K [kg/m3]	mass density, 313.15 K [kg/m3]	mass density, 318.15 K [kg/m3]	mass density, 323.15 K [kg/m3]	speed of sound, 303.15 K [m/s]	speed of sound, 308.15 K [m/s]	speed of sound, 313.15 K [m/s]	speed of sound, 318.15 K [m/s]	speed of sound, 323.15 K [m/s]
x1 = 0.0994	1038.42 ± 1.1	1034.26 ± 1	1030.26 ± 1	1026.14 ± 1	1021.99 ± 1	1511.8 ± 1.3	1497.1 ± 1.3	1482.2 ± 1.3	1467.6 ± 1.3	1453 ± 1.3
x1 = 0.1962	1047.15 ± 1	1042.74 ± 1	1038.53 ± 1	1034.14 ± 1	1029.74 ± 1	1526.8 ± 1.3	1511.5 ± 1.3	1496.4 ± 1.3	1481.6 ± 1.3	1466.5 ± 1.3
x1 = 0.3038	1056.3 ± 1	1051.69 ± 1	1047.29 ± 1	1042.69 ± 1	1038.13 ± 1	1543.7 ± 1.3	1528.1 ± 1.3	1512.5 ± 1.3	1497.3 ± 1.3	1481.7 ± 1.3
x1 = 0.4148	1065.17 ± 1	1060.55 ± 1	1055.91 ± 1	1051.2 ± 1	1046.49 ± 1	1560.1 ± 1.3	1544.3 ± 1.3	1528.5 ± 1.3	1513.2 ± 1.3	1497.3 ± 1.3
x1 = 0.5021	1071.72 ± 1	1067.1 ± 1	1062.38 ± 1	1057.63 ± 1	1052.9 ± 1	1571.9 ± 1.3	1555.9 ± 1.3	1540 ± 1.3	1524.6 ± 1.3	1508.5 ± 1.3
x1 = 0.5951	1078.36 ± 1	1073.71 ± 1	1069.03 ± 1	1064.29 ± 1	1059.57 ± 1	1583.5 ± 1.3	1567.3 ± 1.3	1551.2 ± 1.3	1535.7 ± 1.3	1519.4 ± 1.3
x1 = 0.6891	1084.67 ± 1	1080.01 ± 1	1075.46 ± 1	1070.79 ± 1	1066.14 ± 1	1594.1 ± 1.2	1577.5 ± 1.2	1561.4 ± 1.2	1545.9 ± 1.2	1529.3 ± 1.2
x1 = 0.7994	1091.64 ± 1	1087.08 ± 1	1082.66 ± 1	1078.14 ± 1	1073.64 ± 1	1604.8 ± 1.2	1588.2 ± 1.2	1572 ± 1.2	1556.7 ± 1.2	1539.9 ± 1.2
x1 = 0.8908	1097.03 ± 1	1092.6 ± 1	1088.37 ± 1	1084.03 ± 1	1079.69 ± 1	1612.3 ± 1.2	1595.6 ± 1.2	1579.6 ± 1.2	1563.9 ± 1.2	1546.7 ± 1.2
x1 = 1	1103.07 ± 1	1098.99 ± 1	1094.9 ± 1	1090.82 ± 1	1086.75 ± 1	1617.7 ± 1.2	1601.3 ± 1.2	1585.4 ± 1.2	1570.4 ± 1.2	1553.5 ± 1.2

OCCCO [propan-1,3-diol] + O=C1CCCN1
Conditions	mass density, 303.15 K [kg/m3]	mass density, 308.15 K [kg/m3]	mass density, 313.15 K [kg/m3]	mass density, 318.15 K [kg/m3]	mass density, 323.15 K [kg/m3]	speed of sound, 303.15 K [m/s]	speed of sound, 308.15 K [m/s]	speed of sound, 313.15 K [m/s]	speed of sound, 318.15 K [m/s]	speed of sound, 323.15 K [m/s]
x2 = 0	1046.56 ± 1	1043.43 ± 1	1040.28 ± 1	1037.11 ± 1	1033.92 ± 1	1617.6 ± 1.3	1606.2 ± 1.3	1594.8 ± 1.3	1583.5 ± 1.3	1572.1 ± 1.3
x2 = 0.1108	1052.98 ± 1	1049.7 ± 1	1046.4 ± 1	1043.08 ± 1	1039.74 ± 1	1619.8 ± 1.3	1607.5 ± 1.3	1595.3 ± 1.3	1583.4 ± 1.3	1571.2 ± 1.3
x2 = 0.2172	1059.11 ± 1	1055.69 ± 1	1052.25 ± 1	1048.8 ± 1	1045.34 ± 1	1621.2 ± 1.3	1608.3 ± 1.3	1595.4 ± 1.3	1582.9 ± 1.3	1569.9 ± 1.3
x2 = 0.3044	1064.1 ± 1	1060.58 ± 1	1057.04 ± 1	1053.49 ± 1	1049.93 ± 1	1621.9 ± 1.2	1608.6 ± 1.2	1595.3 ± 1.2	1582.3 ± 1.2	1568.7 ± 1.2
x2 = 0.4174	1070.53 ± 1	1066.89 ± 1	1063.24 ± 1	1059.57 ± 1	1055.89 ± 1	1622.4 ± 1.2	1608.5 ± 1.2	1594.6 ± 1.2	1581.1 ± 1.2	1566.8 ± 1.2
x2 = 0.5076	1075.64 ± 1	1071.91 ± 1	1068.17 ± 1	1064.41 ± 1	1060.65 ± 1	1622.4 ± 1.2	1608 ± 1.2	1593.7 ± 1.2	1579.9 ± 1.2	1565.1 ± 1.2
x2 = 0.6177	1081.83 ± 1	1078 ± 1	1074.17 ± 1	1070.32 ± 1	1066.47 ± 1	1621.9 ± 1.2	1607 ± 1.2	1592.3 ± 1.2	1578.2 ± 1.2	1562.8 ± 1.2
x2 = 0.6909	1085.92 ± 1	1082.04 ± 1	1078.15 ± 1	1074.25 ± 1	1070.34 ± 1	1621.4 ± 1.2	1606.2 ± 1.2	1591.2 ± 1.2	1576.8 ± 1.2	1561.1 ± 1.2
x2 = 0.8139	1092.77 ± 1	1088.8 ± 1	1084.83 ± 1	1080.85 ± 1	1076.87 ± 1	1620.2 ± 1.2	1604.5 ± 1.2	1589 ± 1.2	1574.4 ± 1.2	1558.2 ± 1.2
x2 = 0.8736	1096.07 ± 1	1092.07 ± 1	1088.06 ± 1	1084.05 ± 1	1080.04 ± 1	1619.5 ± 1.2	1603.5 ± 1.2	1587.9 ± 1.2	1573.1 ± 1.2	1556.8 ± 1.2
